Assay results as given in the NIST ThermoML archive (doi:10.1016/j.tca.2011.10.013).

Experiment: mn = molality of the nth substance listed, in mol/kg
Conditions: 101 kPa, Liquid; for speed of sound: Sing-around technique in a fixed-path interferometer; for mass density: Vibrating tube method

O=C[C@H](O)[C@@H](O)[C@H](O)[C@H](O)CO [D-glucose] + O
m1 = 1.13
Conditions | mass density [kg/m3] | speed of sound [m/s]
298.15 K | 1065.07 | 1564.8
303.15 K | 1063.3 | 1574.3
308.15 K | 1061.36 | 1582.4
313.15 K | 1059.24 | 1589.1
318.15 K | 1056.98 | 1594.4
323.15 K | 1054.25 | 1598.5

OC[C@H]1O[C@@](CO)(O[C@H]2O[C@H](CO)[C@@H](O)[C@H](O)[C@H]2O)[C@@H](O)[C@@H]1O [D-sucrose] + O
m1 = 1.274
Conditions | mass density [kg/m3] | speed of sound [m/s]
298.15 K | 1127.37 | 1607.9
303.15 K | 1125.37 | 1615.6
308.15 K | 1123.2 | 1621.9
313.15 K | 1120.73 | 1627
318.15 K | 1118.18 | 1630.8
323.15 K | 1115.44 | 1633.3
